Experimental data reported in patent publication US20140357713A1, “ANTIMICROBIAL COMPOUNDS AND METHODS OF USE” (NexMed Holdings, Inc., priority 2012, published 2014).
Like-named read-outs stand apart in the source and are kept apart here.

Key:
Assay in all cases: MIC assay with different strains, Example 35
Assay type in all cases: cell-based
[1] = test system: Acinetobacter iwoffi (ATCC 15309)
In short: (§1)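 Tube dilution in Mueller Hinton broth at 10^1 to 10^6 CFU/mL, scored visually for growth by turbidity, with agar streak confirmation where the product caused turbidity.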

[2] = test system: Staphylococcus saprophyticus (ATCC 15305)
In short: as §1

[3] = test system: Micrococcus luteus (ATCC 4698)
In short: as §1

[4] = test system: Staphylococcus aureus (ATCC 6538)
In short: as §1

[5] = test system: Proteus mirabilis (ATCC 7002)
In short: as §1

[6] = test system: Klebsiella pneumonia (ATCC 11296)
In short: as §1

[7] = test system: Candida albicans (ATCC 10231)
In short: as §1

[8] = test system: Bacillus subtilis (ATCC 6633)
In short: as §1

[9] = test system: Staphylococcus epidermidis (ATCC 12228)
In short: as §1

[10] = test system: Escherichia coli (ATCC 11229)
In short: as §1

[11] = test system: Enterococcus faecalis (ATCC 51299)
In short: as §1

[12] = test system: Burkholderia cepacia (ATCC 25416)
In short: as §1

[13] = test system: Streptococcus pneumonia (ATCC 6303)
In short: as §1

[14] = test system: Serratia marcescens (ATCC 14756)
In short: as §1

[15] = test system: Enterobacter cloacae (ATCC 13047)
In short: as §1

[16] = test system: Escherichia coli ATCC 25922
In short: as §1

CCCCCCCCCCCCOC(=O)C(C)NC.Cl (stereo not drawn) [Nex-59, Dodecyl 2-(methylamino)propanoate hydrochloride]
1600 mg/L: MIC ([15]; Enterobacter cloacae, ATCC13047, Table 19 summary, read-out: MIC)
2.5%: MIC ([12]; Example 35)
3200 mg/L: MIC ([5]; Proteus mirabilis, ATCC7002, Table 19 summary, read-out: MIC) | MIC ([13]; Streptococcus pneumoniae, ATCC6303, Table 19 summary, read-out: MIC)
>2.5%: MIC ([14]; Example 35)
0.02%: MIC ([1]; Example 35) | MIC ([2]; Example 35) | MIC ([3]; Example 35) | MIC ([9]; Example 35)
25000 mg/L: MIC ([12]; Burkholderia cepacia, ATCC25416, Table 19 summary, read-out: MIC)
No: Growth/no growth ([2]; Sample Concentration 0.02%) | Growth/no growth ([2]; Sample Concentration 0.04%) | Growth/no growth ([2]; Sample Concentration 0.08%) | Growth/no growth ([2]; Sample Concentration 0.16%) | Growth/no growth ([2]; Sample Concentration 0.32%) | Growth/no growth ([2]; Sample Concentration 0.63%) | Growth/no growth ([2]; Sample Concentration 1.25%) | Growth/no growth ([2]; Sample Concentration 2.5%) | Growth/no growth ([3]; Sample Concentration 0.02%) | Growth/no growth ([3]; Sample Concentration 0.04%) | Growth/no growth ([3]; Sample Concentration 0.08%) | Growth/no growth ([3]; Sample Concentration 0.16%) | Growth/no growth ([3]; Sample Concentration 0.32%) | Growth/no growth ([3]; Sample Concentration 0.63%) | Growth/no growth ([3]; Sample Concentration 1.25%) | Growth/no growth ([3]; Sample Concentration 2.5%) | Growth/no growth ([6]; Sample Concentration 0.08%) | Growth/no growth ([6]; Sample Concentration 0.16%) | Growth/no growth ([6]; Sample Concentration 0.32%) | Growth/no growth ([6]; Sample Concentration 0.63%) | Growth/no growth ([6]; Sample Concentration 1.25%) | Growth/no growth ([6]; Sample Concentration 2.5%) | Growth/no growth ([9]; Sample Concentration 0.02%) | Growth/no growth ([9]; Sample Concentration 0.04%) | Growth/no growth ([9]; Sample Concentration 0.08%) | Growth/no growth ([9]; Sample Concentration 0.16%) | Growth/no growth ([9]; Sample Concentration 0.32%) | Growth/no growth ([9]; Sample Concentration 0.63%) | Growth/no growth ([9]; Sample Concentration 1.25%) | Growth/no growth ([9]; Sample Concentration 2.5%) | Growth/no growth ([11]; Sample Concentration 0.04%) | Growth/no growth ([11]; Sample Concentration 0.08%) | Growth/no growth ([11]; Sample Concentration 0.16%) | Growth/no growth ([11]; Sample Concentration 0.32%) | Growth/no growth ([11]; Sample Concentration 0.63%) | Growth/no growth ([11]; Sample Concentration 1.25%) | Growth/no growth ([11]; Sample Concentration 2.5%) | Growth/no growth ([16]; Sample Concentration 0.16%) | Growth/no growth ([16]; Sample Concentration 0.32%) | Growth/no growth ([16]; Sample Concentration 0.63%) | Growth/no growth ([16]; Sample Concentration 1.25%) | Growth/no growth ([16]; Sample Concentration 2.5%)
0.04%: MIC ([4]; Example 35) | MIC ([7]; Example 35) | MIC ([8]; Example 35) | MIC ([11]; Example 35)
Growth: Growth/no growth ([1]; Sample Concentration 0.01%) | Growth/no growth ([2]; Sample Concentration 0.01%) | Growth/no growth ([3]; Sample Concentration 0.01%) | Growth/no growth ([4]; Sample Concentration 0.01%) | Growth/no growth ([4]; Sample Concentration 0.02%) | Growth/no growth ([5]; Sample Concentration 0.01%) | Growth/no growth ([5]; Sample Concentration 0.02%) | Growth/no growth ([5]; Sample Concentration 0.04%) | Growth/no growth ([5]; Sample Concentration 0.08%) | Growth/no growth ([5]; Sample Concentration 0.16%) | Growth/no growth ([6]; Sample Concentration 0.01%) | Growth/no growth ([6]; Sample Concentration 0.02%) | Growth/no growth ([6]; Sample Concentration 0.04%) | Growth/no growth ([7]; Sample Concentration 0.01%) | Growth/no growth ([7]; Sample Concentration 0.02%) | Growth/no growth ([8]; Sample Concentration 0.01%) | Growth/no growth ([8]; Sample Concentration 0.02%) | Growth/no growth ([9]; Sample Concentration 0.01%) | Growth/no growth ([10]; Sample Concentration 0.01%) | Growth/no growth ([10]; Sample Concentration 0.02%) | Growth/no growth ([10]; Sample Concentration 0.04%) | Growth/no growth ([11]; Sample Concentration 0.01%) | Growth/no growth ([11]; Sample Concentration 0.02%) | Growth/no growth ([12]; Sample Concentration 0.01%) | Growth/no growth ([12]; Sample Concentration 0.02%) | Growth/no growth ([12]; Sample Concentration 0.04%) | Growth/no growth ([12]; Sample Concentration 0.08%) | Growth/no growth ([12]; Sample Concentration 0.16%) | Growth/no growth ([12]; Sample Concentration 0.32%) | Growth/no growth ([12]; Sample Concentration 0.63%) | Growth/no growth ([12]; Sample Concentration 1.25%) | Growth/no growth ([13]; Sample Concentration 0.01%) | Growth/no growth ([13]; Sample Concentration 0.02%) | Growth/no growth ([13]; Sample Concentration 0.04%) | Growth/no growth ([13]; Sample Concentration 0.08%) | Growth/no growth ([13]; Sample Concentration 0.16%) | Growth/no growth ([14]; Sample Concentration 0.01%) | Growth/no growth ([14]; Sample Concentration 0.02%) | Growth/no growth ([14]; Sample Concentration 0.04%) | Growth/no growth ([14]; Sample Concentration 0.08%) | Growth/no growth ([14]; Sample Concentration 0.16%) | Growth/no growth ([14]; Sample Concentration 0.32%) | Growth/no growth ([14]; Sample Concentration 0.63%) | Growth/no growth ([14]; Sample Concentration 1.25%) | Growth/no growth ([14]; Sample Concentration 2.5%) | Growth/no growth ([15]; Sample Concentration 0.01%) | Growth/no growth ([15]; Sample Concentration 0.02%) | Growth/no growth ([15]; Sample Concentration 0.04%) | Growth/no growth ([15]; Sample Concentration 0.08%) | Growth/no growth ([16]; Sample Concentration 0.01%) | Growth/no growth ([16]; Sample Concentration 0.02%) | Growth/no growth ([16]; Sample Concentration 0.04%) | Growth/no growth ([16]; Sample Concentration 0.08%)
0.08%: MIC ([6]; Example 35) | MIC ([10]; Example 35)
0.16%: MIC ([15]; Example 35) | MIC ([16]; Example 35)
200 mg/L: MIC ([1]; Acinetobacter, ATCC15309, Table 19 summary, read-out: MIC) | MIC ([2]; Staphylococcus saprophyticus, ATCC15305, Table 19 summary, read-out: MIC) | MIC ([3]; Micrococcus luteus, ATCC4698, Table 19 summary, read-out: MIC) | MIC ([9]; Staphylococcus epidermidis, ATCC12228, Table 19 summary, read-out: MIC)
800 mg/L: MIC ([6]; Klebsiella pneumoniae, ATCC11296, Table 19 summary, read-out: MIC) | MIC ([10]; Escherichia coli, ATCC11229, Table 19 summary, read-out: MIC)
400 mg/L: MIC ([4]; Staphylococcus aureus, ATCC6538, Table 19 summary, read-out: MIC) | MIC ([7]; Candida albicans, ATCC10231, Table 19 summary, read-out: MIC) | MIC ([8]; Bacillus subtilis, ATCC6633, Table 19 summary, read-out: MIC) | MIC ([11]; Enterococcus faecalis, ATCC51299, Table 19 summary, read-out: MIC)
> 25000 mg/L: MIC ([14]; Serratia marcescens, ATCC14756, Table 19 summary, read-out: MIC)
0.32%: MIC ([5]; Example 35) | MIC ([13]; Example 35)
